Results as given in EP4471048A1, “PEPTIDE INHIBITORS OF INTERLEUKIN-23 RECEPTOR” (Zealand Pharma A/S, priority 2023, dated 2024).
pIC50: −log10 of the molar value.

Biological target: T1, human IL-23R (Homo sapiens, UniProt Q5VWK5)
T1 sequence (Q5VWK5 22-629): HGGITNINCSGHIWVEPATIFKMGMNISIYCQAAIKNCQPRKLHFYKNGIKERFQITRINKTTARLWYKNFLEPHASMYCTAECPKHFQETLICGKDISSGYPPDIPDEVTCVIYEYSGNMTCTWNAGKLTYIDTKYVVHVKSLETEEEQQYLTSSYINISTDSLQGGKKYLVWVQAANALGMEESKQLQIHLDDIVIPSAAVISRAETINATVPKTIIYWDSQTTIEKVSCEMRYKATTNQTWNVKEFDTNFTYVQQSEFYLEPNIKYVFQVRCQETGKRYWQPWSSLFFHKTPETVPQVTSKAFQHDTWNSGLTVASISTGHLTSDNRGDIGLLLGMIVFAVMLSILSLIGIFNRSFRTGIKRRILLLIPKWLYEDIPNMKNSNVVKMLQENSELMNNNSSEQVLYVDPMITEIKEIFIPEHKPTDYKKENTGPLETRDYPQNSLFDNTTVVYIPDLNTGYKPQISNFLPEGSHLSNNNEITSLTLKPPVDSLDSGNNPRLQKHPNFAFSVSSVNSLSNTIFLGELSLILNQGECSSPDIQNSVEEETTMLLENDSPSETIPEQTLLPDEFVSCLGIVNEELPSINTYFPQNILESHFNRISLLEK
Assay: biochemical
Details: for Emax: read-out: % displacement (hIL-23R NIuc)
Excerpt: The compound binding affinity for IL-23R was estimated by the ability of compounds to displace a fluorophore-labelled reference compound from the human IL-23R. The assay principle relies on Bioluminescence Resonance Energy Transfer (BRET) between a fluorophore-labelled reference compound binding to the IL-23R part of a fusion protein consisting of the IL-23R fused to a Nanoluc luciferase enzyme (Nanoluc). The Nanoluc is placed in the N-terminus in close proximity to the binding domain of the ligand. Upon close proximity between the fluorophore of the fluorophore-labelled compound and the Nanoluc of the fusion protein, bioluminescence energy generated from conversion of a Nanoluc substrate, is transferred to the fluorophore resulting in an increase in BRET. In presence of an unlabelled compound, the unlabelled compound displaces the fluorophore-labelled peptide from its binding site resulting in a decrease in BRET. The concentration for which half of the fluorophore-labelled peptide is displaced by the unlabelled compound depends on the affinity of the compound for the IL-23R, and is termed the IC50 concentration.
The plasmid also contained a gene to confer resistance for the antibiotic hygromycin. A cell line stably expressing the Nluc-IL23R fusion protein was generated by transfection of HEK293 cells with the expression plasmid and selected with hygromycin for 3 weeks in Growth medium consisting of DMEM w/ Glutamax-I containing, 10% V/V FBS, 1% V/V P/S, 1 mM Sodium Pyruvate, and 1X NEAA, and 0.3 mg/mL hygromycin. The remaining cells were propagated and considered a stable expressing Nluc-IL23R fusion protein pool clone.
Cells expressing the Nluc-IL23R fusion protein were expanded in Growth medium and membranes prepared by homogenization of a cell pellet from 18 T175 flasks (4 °C in subsequent steps). The cell pellet was lysed Tris 10 mM, 7.5, 1 mM EDTA and protease inhibitors (Complete, Roche) and homogenized using a 15 mL glass-dounce by 50 strokes. The homogenate was spun at spin @1500 rpm for 10 min, the supernatant transferred to SV-34 tubes and spun at 40000g for 20 min at 4 °C to pellet the crude membranes. The supernatant was then removed, the pellet resuspended in 5 mL buffer containing 50 mM HEPES pH 7.4, 5 mM EGTA, and 5 mM MgCl2, and homogenized. Aliquots of the resuspended and homogenized membranes containing the Nluc-IL23R fusion protein were stored at -80 °C until use.
The plate was sealed with light impermeable plate seals, and incubated on an orbital shaker 400 rpm for 2 hours at room temperature. To determine the BRET ratio, the plate seal was removed and 25 µL of the Nanoluc substrate (Promega N1572) diluted 1:500 was added to each well and incubated for 1-2 minutes on an orbital shaker at 400 rpm. […] The BRET ratio was calculated as the fluorescence from the TAMRA/nanoluc bioluminescence.
Compound potency (IC50) and maximal displacement (% displacement) were estimated by computer-aided curve fitting using a 4-parameter logistic (4PL) non-linear model. […]
In this application, the inventors provide the data as IC50 values.

| Structure (SMILES) | pIC50 | Emax [%] |
| --- | --- | --- |
| CCCCc1ccc(C[C@@H]2NC(=O)[C@@H]3CCC(=O)N[C@@H](CCCCNC(=O)CC[C@@H](C(=O)N[C@@H](CCN)C(=O)N[C@@H](Cc4cccnc4)C(=O)NC)NC(=O)[C@](C)(CC(C)C)NC(=O)[C@H](Cc4ccc5ccccc5c4)NC2=O)C(=O)N[C@@H]([C@@H](C)CC)C(=O)N[C@@H](C(C)C)C(=O)N[C@@H](Cc2c[nH]c4ccccc24)C(=O)N[C@@H](CCC(N)=O)C(=O)N3)cc1 [Compound 33, K(1c)(6c)^†IVWQE(6c)[F(4-Bu)][2-Nal][2-Me-Leu]E(1c)[Dab][3-(3-Pyridyl)-Ala]-[NHMe]] | 9.12 | 102 |
| CC[C@H](C)[C@@H]1NC(=O)[C@@H]2CCCCNC(=O)CC[C@@H](C(=O)N[C@@H](CCN)C(=O)N[C@@H](Cc3cccnc3)C(=O)NC)NC(=O)[C@](C)(CC(C)C)NC(=O)[C@H](Cc3ccc4ccccc4c3)NC(=O)[C@H](Cc3ccc(OC)cc3)NC(=O)[C@H](CCC(=O)N2)NC(=O)[C@H](CCC(N)=O)NC(=O)[C@H](Cc2c[nH]c3ccccc23)NC(=O)[C@H](C(C)C)NC1=O [Compound 35, K(1c)(6c)^†IVWQE(6c)[Y(Me)][2-Nal][2-Me-Leu]E(1c)[Dab][3-(3-Pyridyl)-Ala]-[NHMe]] | 9.96 | 98 |
| CNC(=O)[C@H](Cc1cccnc1)NC(=O)[C@H](CCN)NC(=O)[C@@H]1CCC(=O)NCCCC[C@@H]2NC(=O)CCC[C@H](NC(=O)[C@H](CCC(N)=O)NC(=O)[C@H](Cc3c[nH]c4ccccc34)NC(=O)[C@H]([C@@H](C)O)NC2=O)C(=O)N[C@@H](Cc2ccc(OCCN)cc2)C(=O)N[C@@H](Cc2ccc3ccccc3c2)C(=O)N[C@@](C)(CC(C)C)C(=O)N1 [Compound 38, K(1c)(6c)^†TWQ[hGlu](6c)[Y(2-aminoethoxy)][2-Nal][2-Me-Leu]E(1c)[Dab][3-(3-Pyridyl)-Ala]-[NHMe]] | 8.82 | 101 |
| CNC(=O)[C@H](Cc1cccnc1)NC(=O)[C@H](CCN)NC(=O)[C@@H]1CCCNC(=O)CC[C@@H]2NC(=O)CC[C@H](NC(=O)[C@H](CCC(N)=O)NC(=O)[C@H](Cc3c[nH]c4ccccc34)NC(=O)[C@H]([C@@H](C)O)NC2=O)C(=O)N[C@@H](Cc2ccc(OCCN)cc2)C(=O)N[C@@H](Cc2ccc3ccccc3c2)C(=O)N[C@@](C)(CC(C)C)C(=O)N1 [Compound 40, E(1c)(6c)^†TWQE(6c)[Y(2-aminoethoxy)][2-Nal][2-Me-Leu][Orn](1c)[Dab][3-(3-Pyridyl)-Ala]-[NHMe]] | – | 100 |
| CNC(=O)[C@H](Cc1cccnc1)NC(=O)[C@H](CCN)NC(=O)[C@@H]1CCC(=O)NCCCC[C@H]2C(=O)N[C@@H]([C@@H](C)O)C(=O)N[C@@H](Cc3c[nH]c4ccccc34)C(=O)N[C@@H](CCC(N)=O)C(=O)N[C@@H](Cc3cn2nn3)C(=O)N[C@@H](Cc2ccc(OCCN)cc2)C(=O)N[C@@H](Cc2ccc3ccccc3c2)C(=O)N[C@@](C)(CC(C)C)C(=O)N1 [Compound 41, [(N3)-K](1c)(6g)^†TWQ[Pra](6g)[Y(2-aminoethoxy)][2-Nal][2-Me-Leu]E(1c)[Dab][3-(3-Pyridyl)-Ala]-[NHMe]] | 8.82 | 98 |
| COc1ccc(C[C@@H]2NC(=O)[C@@H]3CCC(=O)N[C@@H](CCCCNC(=O)CC[C@@H](C(=O)N[C@@H](CCCCNC(=O)c4ccccn4)C(N)=O)NC(=O)[C@](C)(CC(C)C)NC(=O)[C@H](Cc4ccc5ccccc5c4)NC2=O)C(=O)N[C@@H]([C@@H](C)O)C(=O)N[C@@H](C(C)C)C(=O)N[C@@H](Cc2c[nH]c4ccccc24)C(=O)N[C@@H](CCC(N)=O)C(=O)N3)cc1 [Compound 47, K(1c)(6c)^†TVWQE(6c)[Y(Me)][2-Nal][2-Me-Leu]E(1c)[K(piconilate)]-[NH2]] | 6.14 | 99 |
| COc1ccc(C[C@@H]2NC(=O)[C@@H]3CCC(=O)N[C@@H](CCCCNC(=O)CC[C@@H](C(=O)N[C@@H](CCCCNC(=O)CCc4ccccn4)C(N)=O)NC(=O)[C@](C)(CC(C)C)NC(=O)[C@H](Cc4ccc5ccccc5c4)NC2=O)C(=O)N[C@@H]([C@@H](C)O)C(=O)N[C@@H](C(C)C)C(=O)N[C@@H](Cc2c[nH]c4ccccc24)C(=O)N[C@@H](CCC(N)=O)C(=O)N3)cc1 [Compound 49, K(1c)(6c)^†TVWQE(6c)[Y(Me)][2-Nal][2-Me-Leu]E(1c)[K(2-pyridylpropionyl)]-[NH2]] | 6.09 | 96 |
| COc1ccc(C[C@@H]2NC(=O)[C@@H]3CCC(=O)N[C@@H](CCCCNC(=O)CC[C@@H](C(=O)N[C@@H](CCCCNC(=O)Cc4cccnc4)C(N)=O)NC(=O)[C@](C)(CC(C)C)NC(=O)[C@H](Cc4ccc5ccccc5c4)NC2=O)C(=O)N[C@@H]([C@@H](C)O)C(=O)N[C@@H](C(C)C)C(=O)N[C@@H](Cc2c[nH]c4ccccc24)C(=O)N[C@@H](CCC(N)=O)C(=O)N3)cc1 [Compound 51, K(1c)(6c)^†TVWQE(6c)[Y(Me)][2-Nal][2-Me-Leu]E(1c)[K(3-pyridylacetyl)]-[NH2]] | 6.52 | 102 |

Further molecules by rising pIC50, results first:

| pIC50 | Emax [%] | Structure (SMILES) |
| --- | --- | --- |
| 6.54 | 101 | COc1ccc(C[C@@H]2NC(=O)[C@@H]3CCC(=O)N[C@@H](CCCCNC(=O)CC[C@@H](C(=O)N[C@@H](CCCCNC(=O)Cc4ccccn4)C(N)=O)NC(=O)[C@](C)(CC(C)C)NC(=O)[C@H](Cc4ccc5ccccc5c4)NC2=O)C(=O)N[C@@H]([C@@H](C)O)C(=O)N[C@@H](C(C)C)C(=O)N[C@@H](Cc2c[nH]c4ccccc24)C(=O)N[C@@H](CCC(N)=O)C(=O)N3)cc1 [Compound 48, K(1c)(6c)^†TVWQE(6c)[Y(Me)][2-Nal][2-Me-Leu]E(1c)[K(2-pyridylacetyl)]-[NH2]] |
| 8.72 | 96 | CNC(=O)[C@H](Cc1cccnc1)NC(=O)[C@H](CCN)NC(=O)[C@@H]1CCC(=O)NCCCC[C@@H]2C(=O)N[C@@H]([C@@H](C)O)C(=O)N[C@@H](Cc3c[nH]c4ccccc34)C(=O)N[C@@H](CCC(N)=O)C(=O)N[C@@H](CCc3cn2nn3)C(=O)N[C@@H](Cc2ccc(OCCN)cc2)C(=O)N[C@@H](Cc2ccc3ccccc3c2)C(=O)N[C@@](C)(CC(C)C)C(=O)N1 [Compound 42, [{d}(N3)-K](1c)(6g)^†TWQ[Hpg](6g)[Y(2-aminoethoxy)][2-Nal][2-Me-Leu]E(1c)[Dab][3-(3-Pyridyl)-Ala]-[NHMe]] |
| 8.85 | 99 | CNC(=O)[C@H](Cc1cccnc1)NC(=O)[C@H](CCN)NC(=O)[C@@H]1CCC(=O)NCC[C@@H]2NC(=O)CC[C@H](NC(=O)[C@H](CCC(N)=O)NC(=O)[C@H](Cc3c[nH]c4ccccc34)NC(=O)[C@H]([C@@H](C)O)NC2=O)C(=O)N[C@@H](Cc2ccc(OCCN)cc2)C(=O)N[C@@H](Cc2ccc3ccccc3c2)C(=O)N[C@@](C)(CC(C)C)C(=O)N1 [Compound 37, [Dab](1c)(6c)^†TWQE(6c)[Y(2-aminoethoxy)][2-Nal][2-Me-Leu]E(1c)[Dab][3-(3-Pyridyl)-Ala]-[NHMe]] |
| 9.21 | 100 | CC[C@H](C)[C@@H]1NC(=O)[C@@H]2CCCCNC(=O)CC[C@@H](C(=O)N[C@@H](CCN)C(=O)N[C@@H](Cc3cccnc3)C(=O)NC)NC(=O)[C@](C)(CC(C)C)NC(=O)[C@H](Cc3ccc4ccccc4c3)NC(=O)[C@H](Cc3ccc(OCc4ccccc4)cc3)NC(=O)[C@H](CCC(=O)N2)NC(=O)[C@H](CCC(N)=O)NC(=O)[C@H](Cc2c[nH]c3ccccc23)NC(=O)[C@H](C(C)C)NC1=O [Compound 34, K(1c)(6c)^†IVWQE(6c)[Y(Bn)][2-Nal][2-Me-Leu]E(1c)[Dab][3-(3-Pyridyl)-Ala]-[NHMe]] |
